Experimental data reported in PMC6098685 (Journal of the American Chemical Society, 2018).

How the values were obtained:
[1] = target: T1, β-Glucocerebrosidase (GCase) (Homo sapiens, UniProt P04062); assay: 4MU-β-Glc fluorescence enzyme assay; type: biochemical
T1 sequence (P04062 40-536): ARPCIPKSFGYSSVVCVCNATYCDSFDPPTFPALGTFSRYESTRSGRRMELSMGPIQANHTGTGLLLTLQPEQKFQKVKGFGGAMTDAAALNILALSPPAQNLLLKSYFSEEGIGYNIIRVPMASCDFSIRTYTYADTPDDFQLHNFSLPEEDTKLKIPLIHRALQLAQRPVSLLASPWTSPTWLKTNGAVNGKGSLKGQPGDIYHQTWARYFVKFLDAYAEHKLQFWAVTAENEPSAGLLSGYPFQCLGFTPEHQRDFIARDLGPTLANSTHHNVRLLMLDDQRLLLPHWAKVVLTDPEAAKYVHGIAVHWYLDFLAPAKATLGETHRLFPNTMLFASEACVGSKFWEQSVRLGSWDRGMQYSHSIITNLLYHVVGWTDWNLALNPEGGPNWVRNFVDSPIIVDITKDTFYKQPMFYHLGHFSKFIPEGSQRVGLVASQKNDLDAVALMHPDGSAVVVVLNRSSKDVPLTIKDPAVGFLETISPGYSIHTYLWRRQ

[2] = target: T1, β-Glucocerebrosidase (GCase); assay: X-ray crystal structure; type: biochemical

IC50 [1] [nM] | IC50 [2] [nM] | SMILES
8 |  | c1cncc(-c2nc(NC3Cc4ccccc4C3)c3ccccc3n2)c1 [compound 3, JZ-4109]
 | 56 | O=C(CCCCCCCCC#Cc1ccc2c(c1)CC(Nc1nc(-c3cccnc3)nc3ccccc13)C2)ON1C(=O)CCC1=O (centres unmarked) [compound 4, JZ-5029]
